Laboratory results from ChEMBL document CHEMBL1146396, “(2E,9E)-pyronaamidine 9-(N-methylimine), a new imidazole alkaloid from the northern Mariana islands sponge Leucetta sp. cf. chagosensis” (1997).
Values after ≈ are worked out from the molar mass of the structure shown.

Key:
Assay type in all cases: functional
A549 = assay: Cytotoxicity against human A549 cells
MCF7 = assay: Cytotoxicity against human MCF7 cells
HT-29 = assay: Cytotoxicity against human HT-29 cells
Bacillus subtilis = assay: Antimicrobial activity against Bacillus subtilis at 100 ug/disk; details: read-out: IZ
Candida albicans = assay: Antimicrobial activity against Candida albicans at 100 ug/disk; details: read-out: IZ

SMILES | GI50 (A549) | GI50 (MCF7) | GI50 (HT-29) | zone of inhibition at 100 µg/disc (Bacillus subtilis) | zone of inhibition at 100 µg/disc (Candida albicans)
C/N=C1N=C(/N=c2\[nH]c(Cc3ccc(OC)cc3)c(Cc3ccc(OC)c(OC)c3O)n2C)C(=O)N\1C | 6 µg/mL (≈ 11.8 µM) | 3 µg/mL (≈ 5.92 µM) | 6 µg/mL (≈ 11.8 µM) |  | 
COc1ccc(Cc2nc(/N=C3\NC(=O)N(C)C3=O)n(C)c2Cc2ccc(OC)c(OC)c2O)cc1 [PYRONAAMIDINE] |  |  |  | 10 mm | 7 mm
